The term Kb denotes the equilibrium dissociation constant of an antagonist, usually derived from a functional assay. In general, Ki refers to a dissociation constant, usually derived from enzyme kinetics or from competition with a known ligand. Read a low Ki as a stronger hold on the target.

The results in this text go back to patent publication US7935719B2, “N-substituted-azacyclylamines as histamine-3 antagonists” (Wyeth LLC, priority 2006, dated 2011).

Counter-ions that a name gives are not always drawn.

Assay [1] addresses T1, Histamine Receptor H3 (Homo sapiens, UniProt Q9Y5N1). The assay is described as follows: Cyclic AMP assay for histamine receptor H3 antagonism activity. The assay is classed as cell-based. Further details: expressed in transfected cells. The settings on record: stable H3 cells, histamine plus 10 μM forskolin, 30 min at 30° C., HitHunter cAMP kit. How it is done: Cyclic Amp Assay for Histamine Receptor H3 Antagonism Activity.
Stable H3 cells are maintained in tissue culture flask in DMEM with high glucose, 10% FBS, 1× pen/strep, 500 ug/ml GY18, until experiment. Culture media is removed and cells are washed twice with PBS w/Ca+2 and Mg+2 plus 500 μM IBMX. Cells are then detached by tapping on the side of the flask and resuspend in the same buffer. Two thousand cells/well are incubated with 1 μM histamine plus 10 μM forskolin plus various concentrations of compounds in a total volume of 30 μL in 96 well plates for 30 min at 30° C. Final test compound concentrations range from 10^-4 M to 10-9.5 M at full log dilutions. Cyclic AMP levels are measured using HitHunter cAMP kit from Discoverx, cat#900041 according to manufacturer's instruction. Chemiluminescence signals are detected using Top Count (Packard). Cyclic AMP levels in control cells receiving 10 μM forskolin plus 100 nM histamine are considered 0%, and in cells receiving 10 uM forskolin plus 100 nM histamine plus 1 μM clobenpropit are considered 100%. Data are expressed as % control and analyzed using Prizm software. The Kb values are calculated using the following equation, KB=EC50 or IC50/[1+(ligand/Kd)].

In assay [2] the target is T1, Histamine Receptor H3. The experiment in a line: Methyl histamine binding in human histamine H3 receptor cell line. Further details: expressed in transfected cells; host or cells: HEK293T. The settings on record: membranes of stably transfected HEK293T cells, radioligand 1 nM, Ki from IC50 by Cheng-Prusoff. How it is done:
Evaluation of Methyl Histamine Binding in Human Histamine H3 Receptor Cell Line
The affinity of test compounds for the histamine 3 (H3) receptor is evaluated in the following manner. […] Cells are scraped from the plate, transferred to centrifuge tubes, washed one time in PBS by centrifugation in a Sorvall RT7 Plus centrifuge (2000 rpm 10 minutes, 4° C.). The resulting pellets are stored at −80° C. until ready for use. Cells are re-suspended in buffer (50 mM Tris pH=7.5) and placed in a Dounce homogenizer, douncing ten times to homogenize cells. The homogenate is spun down by centrifugation (Sorvall RT7 Plus, 1800 rpm 10 minutes, 4° C.). The supernatant is placed in a Corex tube and spun down by centrifugation (Sorvall RC 5c Plus, 17,000 rpm 20 minutes, 4° C.). The pellet is resuspended in buffer (50 mM Tris, pH 7.5). Protein concentration (ug/ul) is determined using the Micro-BCA Protein Determination. The binding assay is set up in a 96 well microtiter plate in a total volume of 250 uL. Non-specific binding is determined in the presence of 10 uM clobenpropit. The final radioligand concentration is 1 nM. The test compound is serially diluted using the Beckman Biomek2000 to a final approximate range of 100 uM to 100 pM. Membranes are suspended in buffer, homogenized in 2 bursts of ten seconds using a Vitris mechanical homogenizer set at power setting 5. Ten μg of membranes are added to each well. Following a one hour incubation at 30° C., the reaction is terminated by the addition of ice cold buffer and rapid filtration with a Packard Filtermate Harvester through a GF/B filter pre-soaked with 1% PEI for one hour. The plate is dried for one hour at 37° C. and 60 μL Microscint Scintillant is added to each well. The CPM per well is measured on a Packard Top Count NXT. Ki values are determined in nM. […] CPM values are expressed as % specific binding and plotted vs compound concentration. A curve is fitted using a four-parameter logistic fit and the IC50 value is determined. The Ki is calculated from this using the Cheng-Prusoff equation: […]=IC50/1+(L/Kd) where L=concentration of free radioligand used in the assay, and Kd is the dissociation constant of the radioligand for the receptor. L is determined for each experiment by counting an aliquot of the diluted radioligand (corresponding to that added to each well) and the Kd has previously been determined under identical conditions for this cell line/radioligand.

T1 sequence (Q9Y5N1 whole entry): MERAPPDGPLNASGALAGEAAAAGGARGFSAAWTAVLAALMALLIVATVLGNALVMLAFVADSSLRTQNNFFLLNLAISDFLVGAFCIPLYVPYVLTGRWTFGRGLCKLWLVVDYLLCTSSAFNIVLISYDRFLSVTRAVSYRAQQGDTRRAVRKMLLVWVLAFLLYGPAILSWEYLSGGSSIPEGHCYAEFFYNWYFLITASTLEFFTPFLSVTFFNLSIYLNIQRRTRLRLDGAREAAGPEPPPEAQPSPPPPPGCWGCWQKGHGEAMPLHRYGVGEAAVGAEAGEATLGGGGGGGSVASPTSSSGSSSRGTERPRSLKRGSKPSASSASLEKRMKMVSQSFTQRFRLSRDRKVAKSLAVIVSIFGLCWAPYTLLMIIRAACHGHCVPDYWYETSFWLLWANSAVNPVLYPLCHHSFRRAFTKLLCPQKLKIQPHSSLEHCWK

As to `O=C(c1ccc(-n2cnc3ccccc32)cc1)N1CCC(N2CCCC2)C1` (centres unmarked) [Example 2, 1′-[4-1H-benzimidazol-1-yl)benzoyl]-1,3′-bipyrrolidine hydrochloride], the antagonist dissociation constant (Kb) on Histamine Receptor H3 [1] was below 10 nM. Moreover, the inhibitory constant (Ki) at Histamine Receptor H3 [2] is below 10 nM.
Consider `Cc1nc2ccccc2n1-c1ccc(C(=O)N2CC[C@H](N3CCC[C@@H]3C)C2)cc1` [Example 22, (2S,3′S)-2-methyl-1′-[4-(2-methyl-1H-benzimidazol-1-yl)benzoyl]-1,3′-bipyrrolidine], for which the Kb on Histamine Receptor H3 [1] was below 10 nM. In addition, the inhibition constant (Ki) at Histamine Receptor H3 [2] was below 10 nM.
`O=C(c1ccc(-n2ccc3cccc(F)c32)cc1)N1CC[C@H](N2CCCC2)C1` [Example 39, (3′S)-1′-[4-(7-fluoro-1H-indol-1-yl)benzoyl]-1,3′-bipyrrolidine]: on Histamine Receptor H3 [1], the Kb was below 10 nM. Also, on Histamine Receptor H3 [2], the Ki is below 10 nM.
Regarding `O=C(c1ccc(-n2ccc3c(F)cccc32)cc1)N1CC[C@H](N2CCCC2)C1` [Example 31, (3′S)-1′-[4-(4-fluoro-1H-indol-1-yl)benzoyl]-1,3′-bipyrrolidine], the Kb on Histamine Receptor H3 [1] was below 10 nM. The same molecule yielded a Ki at Histamine Receptor H3 [2] below 10 nM.
On to `O=C(c1ccc(-n2cnc3ccccc32)cc1)N1CC[C@H](N2CCCC2)C1` [Example 5, (3′S)-1′-[4-(1H-benzimidazol-1-yl)benzoyl]-1,3′-bipyrrolidine hydrochloride], for which the Kb at Histamine Receptor H3 [1] is 25.1 to 50 nM. At Histamine Receptor H3 [2], this molecule displayed a Ki below 10 nM.
Consider `N#Cc1ccc2c(ccn2-c2ccc(C(=O)N3CC[C@H](N4CCCC4)C3)cc2)c1` [Example 36, 1-{4-[(3′S)-1,3′-bipyrrolidin-1′-ylcarbonyl]phenyl}-1H-indole-5-carbonitrile], for which the Kb on Histamine Receptor H3 [1] is below 10 nM. On Histamine Receptor H3 [2], this molecule had a Ki below 10 nM.
`Cc1nc2ccccc2n1-c1ccc(C(=O)N2CC[C@H](N3CCCC(C)C3)C2)cc1` (stereo partly drawn) [Example 24, 2-methyl-1-(4-{[(3S)-3-(3-methylpiperidin-1-yl)pyrrolidin-1-yl]carbonyl}phenyl)-1H-benzimidazole]: the antagonist equilibrium constant (Kb) at Histamine Receptor H3 [1] is below 10 nM. Besides, at Histamine Receptor H3 [2], the Ki is below 10 nM.
For the molecule `Cc1nc2ccccc2n1-c1ccc(C(=O)N2CC[C@H](N3CCCCC3)C2)cc1` [Example 28, 2-methyl-1-(4-{[(3S)-3-piperidin-1-ylpyrrolidin-1-yl]carbonyl}phenyl)-1H-benzimidazole], on Histamine Receptor H3 [1], the Kb is below 10 nM. This molecule also showed a Ki on Histamine Receptor H3 [2] below 10 nM.
`COc1ccc2c(ccn2-c2ccc(C(=O)N3CC[C@H](N4CCCC4)C3)cc2)c1` [Example 33, (3′S)-1′-[4-(5-methoxy-1H-indol-1-yl)benzoyl]-1,3′-bipyrrolidine]: the Kb at Histamine Receptor H3 [1] is below 10 nM. The molecule further displayed a Ki at Histamine Receptor H3 [2] below 10 nM.
With `O=C(c1ccc(-n2cnc3ccccc32)cc1)N1CC[C@H](N2CCCCCC2)C1` [Example 11, 1-(4-{[(3S)-3-azepan-1-ylpyrrolidin-1-yl]carbonyl}phenyl)-1H-benzimidazole], the Kb on Histamine Receptor H3 [1] is below 10 nM. At Histamine Receptor H3 [2], the inhibitory constant (Ki) is below 10 nM.
`Cc1nc2ccccc2n1-c1ccc(C(=O)N2CC[C@H](N3CCC[C@H]3C)C2)cc1` [Example 21, (2R,3′S)-2-methyl-1′-[4-(2-methyl-1H-benzimidazol-1-yl)benzoyl]-1,3′-bipyrrolidine]: the Kb at Histamine Receptor H3 [1] is below 10 nM. In addition, the inhibition constant Ki on Histamine Receptor H3 [2] was below 10 nM.
On to `C[C@H]1CCCN1[C@H]1CCN(C(=O)c2ccc(-n3cnc4ccccc43)cc2)C1` [Example 7, (2S,3′S)-1′-[4-(1H-benzimidazol-1-yl)benzoyl]-2-methyl-1,3′-bipyrrolidine], for which, on Histamine Receptor H3 [1], the antagonist equilibrium constant (Kb) is below 10 nM. Moreover, the Ki on Histamine Receptor H3 [2] was below 10 nM.
For `O=C(c1ccc(-n2ccc3cc(F)ccc32)cc1)N1CC[C@H](N2CCCC2)C1` [Example 37, (3′S)-1′-[4-(5-fluoro-1H-indol-1-yl)benzoyl]-1,3′-bipyrrolidine], the antagonist equilibrium constant (Kb) on Histamine Receptor H3 [1] is below 10 nM. In addition, on Histamine Receptor H3 [2], the inhibitory constant (Ki) was below 10 nM.
